Data taken from patent publication US20170029841A1, “METHODS AND COMPOSITIONS FOR SELECTIVE REGULATION OF PROTEIN EXPRESSION” (priority 2015, published 2017).

System: maize tissue pools (tassel, ear, leaf, root, stem)
Assay: siRNA profiling microarray assay of mts-siRNA sequences across maize tissues
Details: for 01DKD2 V8-V9 Tassel relative signal value: germplasm 01DKD2, V8-V9 tassel; for 01DKD2 V10-V12 Tassel relative signal value: germplasm 01DKD2, V10-V12 tassel; for 01DKD2 Other Tissue relative signal value: germplasm 01DKD2, combined signals from other tissue; for LH244 V8-V9 Tassel relative signal value: germplasm LH244, V8-V9 tassel; for LH244 V10-V12 Tassel relative signal value: germplasm LH244, V10-V12 tassel; for LH244 Other Tissue relative signal value: germplasm LH244, combined signals from other tissue
Protocol: A siRNA profiling microarray assay was performed using μParaflo® Microfluidics chips provided by LC Sciences LLC (Houston, Tex., USA) with 1,200 sequences selected from the thousands of mts-siRNA sequences identified from the differential bioinformatic analysis. The microarray chips contained triplicate probes of the complementary sequence for each of the 1,200 mts-siRNA sequences. Total RNA was purified from 26 maize tissue pools (duplicate or triplicate tissue pools) from either LH244 (ATCC deposit number PTA-1173) or 01DKD2 (I294213) (ATCC deposit number PTA-7859) inbred plants. Each of the 26 RNA samples were hybridized with the microarray chips that contain probes for the 1,200 mts-siRNA. Hybridization images were collected using a GenePix® 4000B laser scanner (Molecular Devices, Sunnyvale, Calif.) and digitized using Array-Pro® Analyzer image analysis software (Media Cybernetics, Rockville, Md.). Relative signal values were derived by background subtraction and normalization. Differentially expressed signals were determined by t-test with p<0.05. From the microarray analysis, about 500 mts-siRNA from the 1,200 were identified as being highly tassel-specific.
Selected mts-siRNA sequences aligning to one of the six cDNA sequences were used for further microarray analysis to determine differential expression across maize tissues. Microarray analysis for mts-siRNA sequences of normalized signal values for V8-V9 tassel, V10-V12 tassel, or combined signals from the other tissue for maize germplasm LH244 and 01DKD2 is presented in Tables 3-10. […] Signal value results are measured as relative signal values and standard error (p<0.05) is represented by (STDR). […] The mts-siRNA sequence corresponds to the sense or antisense strand of the corresponding mts-siRNA target sequence in the cDNA sequence. The mts-siRNA sequence may have a single nucleotide, a two nucleotide, or a three nucleotide mismatch with the aligned portion of the cDNA sequence, and the mts-siRNA sequence may align to the sense strand or antisense strand of the cDNA sequence. The mts-siRNA sequences provided here are found across different maize germplasms.

| Substance | 01DKD2 V8-V9 Tassel relative signal value | 01DKD2 V10-V12 Tassel relative signal value | 01DKD2 Other Tissue relative signal value | LH244 V8-V9 Tassel relative signal value | LH244 V10-V12 Tassel relative signal value | LH244 Other Tissue relative signal value |
| --- | --- | --- | --- | --- | --- | --- |
| SEQ ID NO: 27: mts-siRNA sequence aligning to cDNA SEQ ID NO: 17 (CGGACATTTGCAGTTCTATGGT; expressed or natural sequence) | 73 | 405.5 | 1 | 377.5 | 581.7 | 1.1 |
| SEQ ID NO: 24: mts-siRNA sequence aligning to cDNA SEQ ID NO: 17 (ATCACCATGCACGGTCGT; expressed or natural sequence) | 16 | 174 | 3 | 104.5 | 322 | 7.7 |
| SEQ ID NO: 23: mts-siRNA sequence aligning to cDNA SEQ ID NO: 17 (CATCACCATGCACGGTCGTCGT; expressed or natural sequence) | 27 | 318 | 4.3 | 183.5 | 514 | 2.6 |
| SEQ ID NO: 78: mts-siRNA sequence aligning to cDNA SEQ ID NO: 22 (GCATGCACTGGTGAGTCACTGTTG; expressed or natural sequence) | 3 | 715.5 | 4.5 | 47.5 | 642.7 | 1 |
| SEQ ID NO: 66: mts-siRNA sequence aligning to cDNA SEQ ID NO: 21 (TGGTCATACACTAGATAGGGC; expressed or natural sequence) | 61 | 55.5 | 2.8 | 199.5 | 48 | 1.9 |
| SEQ ID NO: 31: mts-siRNA sequence aligning to cDNA SEQ ID NO: 17 (ACACGCATGTCACATCGCCGTC; expressed or natural sequence) | 0 | 26.5 | 2.8 | 8 | 49 | 1.2 |
| SEQ ID NO: 49: mts-siRNA sequence aligning to cDNA SEQ ID NO: 19 (TACTACTACTCCCTTCTCGG; expressed or natural sequence) | 57.5 | 867 | 55.3 | 340 | 1241.7 | 16.3 |
| SEQ ID NO: 85: mts-siRNA sequence aligning to cDNA SEQ ID NO: 22 (CAAGGCAAGAAGGTGCTTGTTGT; expressed or natural sequence) | 2.5 | 246 | 2.5 | 184 | 310 | 2.8 |
| SEQ ID NO: 59: mts-siRNA sequence aligning to cDNA SEQ ID NO: 20 (ATGCCAAAGGTACCGATGTTAG; expressed or natural sequence) | 202 | 811.5 | 0.3 | 789 | 1262.7 | 4.1 |
| SEQ ID NO: 55: mts-siRNA sequence aligning to cDNA SEQ ID NO: 20 (CGGACATTTGCAGTTCTATGGT; expressed or natural sequence) | 73 | 405.5 | 1 | 377.5 | 581.7 | 1.1 |
| SEQ ID NO: 57: mts-siRNA sequence aligning to cDNA SEQ ID NO: 20 (GACATTTGCAGTTCTATGGTGT; expressed or natural sequence) | 29 | 134.5 | 3.8 | 126.5 | 248 | 2.4 |
| SEQ ID NO: 83: mts-siRNA sequence aligning to cDNA SEQ ID NO: 22 (CAAGGCAAGAAGGTGCTT; expressed or natural sequence) | 2 | 253.5 | 1.5 | 173 | 303 | 2.5 |
| SEQ ID NO: 28: mts-siRNA sequence aligning to cDNA SEQ ID NO: 17 (GACATTTGCAGTTCTATGGTGT; expressed or natural sequence) | 29 | 134.5 | 3.8 | 126.5 | 248 | 2.4 |
| SEQ ID NO: 65: mts-siRNA sequence aligning to cDNA SEQ ID NO: 21 (CGAATTGATTCCACCCATTCC; expressed or natural sequence) | 444.5 | 454.5 | 12 | 811.5 | 260.3 | 5.8 |
| SEQ ID NO: 73: mts-siRNA sequence aligning to cDNA SEQ ID NO: 22 (AAGCTATCGATTCCCTAAGTGCCA; expressed or natural sequence) | 37.5 | 1695.5 | 2 | 1058.5 | 2395.7 | 4.5 |
| SEQ ID NO: 63: mts-siRNA sequence aligning to cDNA SEQ ID NO: 21 (TAGATCACTCGGGTCGCCACA; expressed or natural sequence) | 14.5 | 18 | 1.5 | 34.5 | 11.7 | 3.2 |
| SEQ ID NO: 68: mts-siRNA sequence aligning to cDNA SEQ ID NO: 21 (GAACAGTGATTTTATGAGCAA; expressed or natural sequence) | 98 | 96 | 2.5 | 265 | 85.3 | 5 |
| SEQ ID NO: 72: mts-siRNA sequence aligning to cDNA SEQ ID NO: 22 (GGCCTCCCTTCCCTATGGTAGCC; expressed or natural sequence) | 332.5 | 530 | 233.3 | 323.5 | 325.7 | 1324.8 |
| SEQ ID NO: 43: mts-siRNA sequence aligning to cDNA SEQ ID NO: 19 (AGCACTCGAGCTTTCACGCCAACA; expressed or natural sequence) | 4 | 190.5 | 4.3 | 52.5 | 147.3 | 1 |
| SEQ ID NO: 45: mts-siRNA sequence aligning to cDNA SEQ ID NO: 19 (TAAATGGTCGTCGTATTAGCTGAT; expressed or natural sequence) | 253 | 7195.5 | 5.8 | 7901 | 9982.3 | 8.2 |
